Laboratory results published in patent publication US9273095B2, “Antibiotic peptide and preparation method therefor and application therefor” (priority 2011, dated 2016).
Converted amounts (≈) assume the structure as drawn. Where two headings read alike, the source gives them in different places. Marks after values point to notes of the source that are not given here. Non-standard residues stand in square brackets, D forms with d. Residues, ends and D or L forms follow the SMILES beside them.

Columns and labels:
aspergillus flavous = assay: microbe, parasite or virus in culture; assay type: cell-based
How it was run: (§1)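 Broth dilution in RPMI-1640 with PL-13 peptide diluted 10-fold from stock; inoculum 1-3×10^3 CFU/ml in the test. Strains activated at 60% humidity, 25 °C for aspergillus or 37 °C for candida; living and blank control wells included.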

candida glabrata = assay: microbe, parasite or virus in culture; assay type: cell-based
How it was run: as §1

aspergillus fumigatus = assay: microbe, parasite or virus in culture; assay type: cell-based
How it was run: as §1

candida albicans = assay: microbe, parasite or virus in culture; assay type: cell-based
How it was run: as §1

candida tropicalis = assay: microbe, parasite or virus in culture; assay type: cell-based
How it was run: as §1

candida krusei = assay: microbe, parasite or virus in culture; assay type: cell-based
Excerpt: • (1) Test strains: monilia albicans (candida albicans), candida glabrata, candida krusei, candida tropicalis, aspergillus fumigatus and flavous. (2) Quality control strains: candida krusei JLC30366 (ATCC6258). Antimicrobial peptides PL-13 (SEQ ID NO: 1) under test are supplied by Jiangsu ProteLight Pharmaceutical & Biotechnology Co., LTD. […] (1) The bacterial strains which preserved on PDA slant are respectively inoculated onto PDA plate and slant medium. Activation of bacterial strains is conducted at a humidity level of 60% and 25° C. (for aspergillus) or 37° C. (for candida). (2) 0.9% stroke-physiological saline solution comprising 0.5% Tween-80 is used to prepare bacterial suspension for experiment. Hemocytometer is utilized to adjust concentration of the bacterial suspension to 1-3×10^6 CFU/ml (0.5 McFarland units) to make stock solution in reserve at -20° C. During the sensitivity test, the RPMI-1640 liquid medium is diluted 1000 times to 1-3×10^3 CFU/ml. (3) The RPMI-1640 liquid is utilized as diluent to 10-fold dilute stock solution of peptides. […] The eleventh orifice is used as living control orifice, while the twelfth one as blank control. (4) The RPMI-1640 liquid is utilized as diluent to 10-fold dilute stock solution of FCZ and ICZ. […] Ditto for other operations.

Enterococcus faecalis = assay: organism not typed; assay type: cell-based; conditions: read-out: MIC
Experimental: The experimental strains are 37 standard strains preserved in lab and clinical isolated bacteria, including drug-resistant bacteria and quality-control bacteria selecting Staphylococcus aureus ATCC29213, Enterococcus faecalis ATCC29212, Escherichia coli ATCC25922, Pseudomonas aeruginosa ATCC27853 and klebsiella pneumoniae ATCC700603.
(1) Sensitivity test is conducted with two-fold agar dilution method and Denlay multipoint inoculator. Test bacteria are cultured with nutrient broth and brain heart infusion.
(2) The drug is double diluted into different concentration with MH broth after dissolved and then placed in the plate respectively.
(4) After solidification of the culture medium in the plate, test bacteria (10^4CFU/point) are inoculated by multipoint inoculator and cultured for 18 hours at constant 35° C. Then observe the results.

[1] = test system: Candida albicans and Escherichia; assay: Therapeutic experiment of injection on mice with multiple mixed infections, survival time; assay type: in vivo, ICR mice; conditions: for Mean survival Time / average survival time: observed fourteen days; for Mean survival Time / Mortality of mice in different days after infection: n = 20; for average survival time: injection through caudal vena twice a day for three days
Experimental: There are 60 male and 60 female ICR mice with the weight ranging from 18 g to 22 g. According to their weight, they are randomly divided into 6 groups of 20 mice: blank control group, negative control group, Levofloxacin positive control group, and high, middle and low dose of PL-18 (SEQ ID NO: 1) group. With trinitrophenal marking method, all the mice are raised with ordinary animal feeds in the ordinary animal houses and they can drink water freely. Alternating of light and dark is conducted every 12 hours.
2. Infected Strains: Candida albicans and Escherichia
PL-18 (SEQ ID NO: 1) freeze-dried powder injection (supplied by Jiangsu ProteLight Pharmaceutical & Biotechnology Co., LTD.), Levofloxacin Hydrochloride and Sodium Chloride Injection (supplied by Yangtze River Pharmaceutical Group) and 0.9% Sodium Chloride Injection (supplied by Chifeng Rongjitang Pharmaceutical CO., Ltd.)
(1) The preparation of bacterial suspension is the same as above.
(2) The Candida albicans suspension cultured overnight is diluted to 1×10^6CFU/ml with Sodium Chloride and 5×10^5CFU of which is injected into abdominal cavity of every mouse; the Escherichia suspension cultured overnight is diluted to 2×10^8CFU/ml and 1×10^7CFU of which is injected into abdominal cavity of every mouse to make model with mixed infections.
(3) The blank control group is injected with normal saline into their abdominal cavity, the positive control group is injected with Levofloxacin into their abdominal cavity.
(4) Administration: The drugs are administered according to weight right after the model is ready. All the groups except the blank and the infected negative control group are injected with different dosage of different injections through caudal vena twice a day successively for three days, and they are observed for fourteen days.
(5) Observe death of the animals and record their survival time.

[2] = 06-71 (VRE) Vancomycin-resistant Enterococci
[3] = HH22* (AMEs) Aminoglycoside-modifying enzyme

## Ac-FKRLEKLFSKIWNWK-NH2 [PL-12]
Aspergillus flavous; JLC 30784 aspergillus flavous
  Minimal inhibitory concentration: >64 µg/mL
Aspergillus flavous; JLC 40437 aspergillus flavous
  Minimal inhibitory concentration: >64 µg/mL
Candida glabrata; JLC 30367 candida glabrata
  Minimal inhibitory concentration: 32 µg/mL
Candida glabrata; JLC 31512 candida glabrata
  Minimal inhibitory concentration: 32 µg/mL
Aspergillus fumigatus; JLC 30506 aspergillus fumigatus
  Minimal inhibitory concentration: 32 µg/mL
Aspergillus fumigatus; JLC 30883 aspergillus fumigatus
  Minimal inhibitory concentration: 32 µg/mL
Candida albicans; JLC 33659 candida albicans
  Minimal inhibitory concentration: 16 µg/mL
Candida albicans; JLC 33660 candida albicans
  Minimal inhibitory concentration: 16 µg/mL
Candida tropicalis; JLC 31379 candida tropicalis
  Minimal inhibitory concentration: 4 µg/mL
Candida tropicalis; JLC 31384 candida tropicalis
  Minimal inhibitory concentration: 8 µg/mL
Candida krusei; JLC 30366 candida krusei
  Minimal inhibitory concentration: 8 µg/mL
Candida krusei; JLC 30383 candida krusei
  Minimal inhibitory concentration: 16 µg/mL
Enterococcus faecalis; [2]
  MIC: 0.3 µM
Enterococcus faecalis; Enterococcus faecalis ATCC29212
  MIC: 1.3 µM
Enterococcus faecalis; [3]
  MIC: 0.3 µM
Enterococcus faecalis; strain 06-7 (listed under Enterococcus faecalis)
  MIC: 5.3 µM

## CC(=O)N[C@H](Cc1ccccc1)C(=O)N[C@H](CCCCN)C(=O)N[C@H](CCCCN)C(=O)N[C@H](CC(C)C)C(=O)N[C@H](CCCCN)C(=O)N[C@H](CCCCN)C(=O)N[C@H](CC(C)C)C(=O)N[C@H](Cc1ccccc1)C(=O)N[C@H](CO)C(=O)N[C@H](CCCCN)C(=O)N[C@H](CC(C)C)C(=O)N[C@H](Cc1c[nH]c2ccccc12)C(=O)N[C@H](CC(N)=O)C(=O)N[C@H](Cc1c[nH]c2ccccc12)C(=O)N[C@H](CCCCN)C(N)=O [PL-18] (Ac-[dF][dK][dK][dL][dK][dK][dL][dF][dS][dK][dL][dW][dN][dW][dK]-NH2)
[1]; 0.2 mg/kg (low) caudal vena twice a day for three days
  Mean survival Time: 4.4* day
[1]; 1 mg/kg (middle) caudal vena twice a day for three days
  Mean survival Time: 5.7** day
[1]; 1 mg/kg dosage injection
  curative effect on mice with multiple mixed infection (in words): best curative effect
[1]; 5 mg/kg (high) caudal vena twice a day for three days
  Mean survival Time: 5.3** day
[1]; day 1, 0.2 mg/kg (low) caudal vena twice a day for three days
  Mortality of mice in different days after infection: 4
[1]; day 1, 1 mg/kg (middle) caudal vena twice a day for three days
  Mortality of mice in different days after infection: 5
[1]; day 1, 5 mg/kg (high) caudal vena twice a day for three days
  Mortality of mice in different days after infection: 5
[1]; day 2, 0.2 mg/kg (low) caudal vena twice a day for three days
  Mortality of mice in different days after infection: 4
[1]; day 2, 1 mg/kg (middle) caudal vena twice a day for three days
  Mortality of mice in different days after infection: 4
[1]; day 2, 5 mg/kg (high) caudal vena twice a day for three days
  Mortality of mice in different days after infection: 5
[1]; day 3, 0.2 mg/kg (low) caudal vena twice a day for three days
  Mortality of mice in different days after infection: 5
[1]; day 3, 1 mg/kg (middle) caudal vena twice a day for three days
  Mortality of mice in different days after infection: 3
[1]; day 3, 5 mg/kg (high) caudal vena twice a day for three days
  Mortality of mice in different days after infection: 2
[1]; day 4, 0.2 mg/kg (low) caudal vena twice a day for three days
  Mortality of mice in different days after infection: 2
[1]; day 4, 1 mg/kg (middle) caudal vena twice a day for three days
  Mortality of mice in different days after infection: 2
[1]; day 4, 5 mg/kg (high) caudal vena twice a day for three days
  Mortality of mice in different days after infection: 1
[1]; day 5, 0.2 mg/kg (low) caudal vena twice a day for three days
  Mortality of mice in different days after infection: 2
[1]; day 5, 1 mg/kg (middle) caudal vena twice a day for three days
  Mortality of mice in different days after infection: 0
[1]; day 5, 5 mg/kg (high) caudal vena twice a day for three days
  Mortality of mice in different days after infection: 2
[1]; high dosage group
  average survival time: 5.3 days
[1]; low dosage group
  average survival time: 4.4 days
[1]; middle dosage group
  average survival time: 5.7 days
Aspergillus flavous
  Minimal inhibitory concentration: >64 µg/mL
Candida glabrata
  Minimal inhibitory concentration: 4 µg/mL (≈ 1.97 µM)
Aspergillus fumigatus
  Minimal inhibitory concentration: 16 µg/mL (≈ 7.86 µM)
Candida albicans
  Minimal inhibitory concentration: 4 µg/mL (≈ 1.97 µM)
Candida tropicalis
  Minimal inhibitory concentration: 2 µg/mL (≈ 0.983 µM)
Candida krusei
  Minimal inhibitory concentration: 4 µg/mL (≈ 1.97 µM)
Enterococcus faecalis; [2]
  MIC: 1.3 µM (≈ 2.65 µg/mL)
Enterococcus faecalis; [3]
  MIC: 1.7 µM (≈ 3.46 µg/mL)

## CC(=O)N[C@H](Cc1ccccc1)C(=O)N[C@H](CCCCN)C(=O)N[C@H](CCCCN)C(=O)N[C@H](Cc1ccccc1)C(=O)N[C@H](CCCCN)C(=O)N[C@H](CCCCN)C(=O)N[C@H](CC(C)C)C(=O)N[C@H](CC(C)C)C(=O)N[C@H](CO)C(=O)N[C@H](CCCCN)C(=O)N[C@H](CC(C)C)C(=O)N[C@H](Cc1c[nH]c2ccccc12)C(=O)N[C@H](CC(N)=O)C(=O)N[C@H](Cc1c[nH]c2ccccc12)C(=O)N[C@H](CCCCN)C(N)=O [PL-43] (Ac-[dF][dK][dK][dF][dK][dK][dL][dL][dS][dK][dL][dW][dN][dW][dK]-NH2; N-terminus and C-terminus assumed)
Aspergillus flavous
  Minimal inhibitory concentration: >64 µg/mL
Candida glabrata
  Minimal inhibitory concentration: 32 µg/mL (≈ 15.7 µM)
Aspergillus fumigatus
  Minimal inhibitory concentration: 64 µg/mL (≈ 31.4 µM)
